In patent US8785499B2 (priority 2009, dated 2014):
Read-outs that look alike come from different tables or passages of the source.

What was measured:
ecNadD = ecNadD (Escherichia coli (strain K12), UniProt P0A752); experiment: biochemical; format: biochemical; conditions: for inhibition at 100 µM: read-out: INHIBITION (%) E. coli; for IC50: IC50 ecNadD
baNadD = baNadD (Bacillus anthracis, UniProt C3L5T6); experiment: biochemical; format: biochemical; conditions: for inhibition at 50 µM: read-out: INHIBITION (%) B. anthracis
Chain of baNadD (C3L5T6 whole entry, looked up): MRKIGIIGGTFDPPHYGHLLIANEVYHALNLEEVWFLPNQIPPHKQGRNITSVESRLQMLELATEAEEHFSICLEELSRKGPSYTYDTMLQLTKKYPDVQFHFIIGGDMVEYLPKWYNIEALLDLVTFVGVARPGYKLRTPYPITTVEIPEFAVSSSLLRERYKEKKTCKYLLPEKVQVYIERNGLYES

Compound | […]. coli (ecNadD) [%] | […]. anthracis (baNadD) [%] | further results
COc1ccc(-c2noc(COc3ccc(Cl)cc3Cl)n2)cc1 [compound 295] | 0 | 11 | –
O=S(=O)(NCc1cccs1)c1ccc(Br)cc1 [compound 188] | 1 | 0 | –
OCC#CCSc1nnc(-c2cccc(Br)c2)o1 [compound 255] | 0 | 0 | –
Nc1c(C(=O)Nc2ccc(Cl)c(Cl)c2)sc2nc(-c3cccs3)ccc12 [03_09] | – | – | inhibition at 100 µM (ecNadD): 60%; inhibition at 50 µM (baNadD): 63%
CC(=O)Nc1ccc(OCC(=O)Nc2ccccc2)cc1 [compound 125] | 7 | 0 | –
O=C(O)CN1C(=O)CC(Cc2ccc(Cl)cc2)C1=O (centres unmarked) [compound 168] | 3 | 0 | –
NNC(=O)CNC(=O)CNS(=O)(=O)c1ccc(Cl)cc1 [compound 250] | 0 | 0 | –
N=C(N)NNC(=S)Nc1ccc(Cl)cc1 [compound 013] | 30 | 0 | –
O=C(O)CCC(=O)Nc1ccc(-c2nnc(-c3ccco3)o2)cc1 [compound 239] | 0 | 11 | –
CSc1sc(C(=O)O)c(I)c1S(=O)(=O)C(C)C [compound 158] | 4 | 36 | –
Cc1ccccc1N/C=C1\C(=O)Nc2ccccc21 [15_31] | – | – | IC50 (ecNadD): 118 µM; inhibition at 100 µM (ecNadD): 7%; IC50 (baNadD; IC50 baNadD): 112 µM; inhibition at 50 µM (baNadD): 27%
CS(=O)(=O)N(CC(=O)Nc1ccccc1Br)c1ccc(Cl)cc1 [compound 163] | 4 | 54 | –
Cn1c(=O)n(C)c2cc(S(=O)(=O)NCCC(=O)O)ccc21 [compound 249] | 0 | 1 | –
Nc1[nH][nH]c(=O)c1/N=N/c1ccccc1F [compound 254] | 0 | 0 | –
Cc1ccc(C(=O)Nc2nc3ccc(Br)cc3s2)o1 [compound 123] | 7 | 0 | –
CCCn1cc(C(CC(=O)O)C(=O)O)c2ccccc21 (centres unmarked) [compound 110] | 9 | 0 | –
Cc1nc(N)nc(O)c1Oc1ccccc1 [compound 102] | 9 | 6 | –
Nc1c(C(=O)Nc2ccc(F)c(F)c2)sc2nc(-c3ccc(F)cc3)ccc12 [03_24] | – | – | IC50 (ecNadD): > 200 µM; inhibition at 100 µM (ecNadD): 9%; IC50 (baNadD; IC50 baNadD): > 200 µM; inhibition at 50 µM (baNadD): 5%
O=C(CCC(=O)Nc1ccccc1Br)N/N=C/c1c2ccccc2cc2ccccc12 [01_04] | – | – | IC50 (ecNadD): 15 µM; inhibition at 100 µM (ecNadD): 79%; IC50 (baNadD; read-out: IC50 baNadD): 25 µM; inhibition at 50 µM (baNadD): 100%
O=C(O)c1cccc(NCN2C(=O)c3ccccc3C2=O)c1 [compound 027] | 23 | 0 | –
COc1c(C)cc(Br)cc1C(=O)Nc1ccc(S(N)(=O)=O)cc1 [compound 032] | 21 | 8 | –
Cc1nn(-c2ccc([N+](=O)[O-])cc2)c(Cl)c1S(=O)(=O)O [compound 262] | 0 | 5 | –
O=C1NC(=O)/C(=C\c2ccc(C(=O)O)cc2)N1 [compound 007] | 54 | 34 | –
COc1ccc(NS(=O)(=O)c2ccc(SC)cc2)cc1 [compound 103] | 9 | 0 | –

Compound | […]. coli (ecNadD) [%] | […]. anthracis (baNadD) [%] | further results
CC(C)N/C=C1\C(=O)Nc2ccccc21 [15_34] | – | – | inhibition at 100 µM (ecNadD): 4%; inhibition at 50 µM (baNadD): 9%
Nc1c(C(=O)Nc2ccc(F)c(F)c2)sc2nc(-c3ccncc3)ccc12 [03_26] | – | – | inhibition at 100 µM (ecNadD): 7%; inhibition at 50 µM (baNadD): 23%
Nc1c(C(=O)Nc2cccc(Cl)c2)sc2nc(-c3cccs3)ccc12 [03_12] | – | – | IC50 (ecNadD): 71 µM; inhibition at 100 µM (ecNadD): 53%; IC50 (baNadD; IC50 baNadD): 15 µM; inhibition at 50 µM (baNadD): 89%
CC(C)COC1CS(=O)(=O)CC1OCC(C)C (centres unmarked) [compound 223] | 0 | 20 | –
O=C(/C=C/c1ccc2c(c1)OCO2)Nc1ncc([N+](=O)[O-])s1 [compound 049] | 16 | 10 | –
COC(=O)CSc1nnc(-c2ccc(Cl)cc2Cl)o1 [compound 274] | 0 | 0 | –
COCCNS(=O)(=O)c1ccc2c(c1)CCN2C(=O)CCC(=O)O [compound 196] | 1 | 52 | –
Nc1c(C(=O)Nc2ccc(Cl)cc2Cl)sc2nc(-c3ccncc3)ccc12 [03_04] | – | – | IC50 (ecNadD): 21 µM; inhibition at 100 µM (ecNadD): 84%; IC50 (baNadD; IC50 baNadD): 21 µM; inhibition at 50 µM (baNadD): 79%
CN1CCN(C(=O)c2ccccc2C(=O)O)CC1 [compound 190] | 1 | 0 | –
O=C(O)c1cc([N+](=O)[O-])ccc1Sc1cccs1 [compound 005] | 71 | 44 | –
O=C(O)/C=C\C(=O)Nc1ccc(Br)c(Cl)c1 [compound 131] | 7 | 0 | –
O=C(O)CCCCCN1C(=O)c2ccc(F)cc2C1=O [compound 024] | 23 | 0 | –
O=C(O)/C=C/c1ccc(S(=O)(=O)NCc2ccc3c(c2)OCO3)cc1 [compound 070] | 13 | 5 | –
Nc1cc(NCCCCCC(=O)O)ccc1[N+](=O)[O-] [compound 034] | 21 | 1 | –
O=C(NCCc1nc2ccccc2[nH]1)c1cccs1 [compound 079] | 12 | 0 | –
CCn1c(SCC(N)=O)nnc1-c1ccc(Cl)cc1 [compound 065] | 14 | 0 | –
O=C1Nc2ccccc2/C1=C/Nc1ccccc1C(=O)O [15_40] | – | – | inhibition at 100 µM (ecNadD): 1%; inhibition at 50 µM (baNadD): 0%
O=S(=O)(Nc1nc2ccccc2s1)c1ccc(Cl)s1 [compound 284] | 0 | 7 | –
CSc1cccc(N/C=C2\C(=O)Nc3ccccc32)c1 [15_18] | – | – | inhibition at 100 µM (ecNadD): 11%; inhibition at 50 µM (baNadD): 24%
COc1cc(Br)cc(/C=C2/SC(=S)NC2=O)c1O [compound 037] | 20 | 0 | –
O=C(NCc1cccs1)C1CC(c2cccc(Br)c2)=NO1 (centres unmarked) [compound 222] | 0 | 0 | –
Nc1nnc(CCSc2cc(Cl)ccc2Cl)s1 [compound 018] | 27 | 0 | –
O=C(COc1ccc(Cl)cc1)N/N=C/c1cccs1 [compound 080] | 11 | 24 | –
O=[N+]([O-])/C=C/Nc1cccc([N+](=O)[O-])c1 [compound 061] | 14 | 0 | –

Compound | […]. coli (ecNadD) [%] | […]. anthracis (baNadD) [%] | further results
O=C1Nc2ccccc2/C1=C/Nc1ccccc1F [15_17] | – | – | inhibition at 100 µM (ecNadD): 11%; inhibition at 50 µM (baNadD): 22%
O=C(CCC(=O)Nc1ccc(F)cc1)N/N=C/c1ccc(O)cc1 [01_16] | – | – | inhibition at 100 µM (ecNadD): 42%; inhibition at 50 µM (baNadD): 29%
O=C1NC(=O)/C(=C\c2ccc(O)c(I)c2)N1 [compound 194] | 1 | 62 | –
Nc1c(C(=O)Nc2cc(Cl)cc(Cl)c2)sc2nc(-c3cccs3)ccc12 [03_03] | – | – | IC50 (ecNadD): 64 µM; inhibition at 100 µM (ecNadD): 93%; IC50 (baNadD; IC50 baNadD): 21 µM; inhibition at 50 µM (baNadD): 90%
O=C(Nc1ncnc2[nH]cnc12)c1ccccc1 [compound 112] | 8 | 0 | –
O=C(O)c1cc(C(=O)O)cc(N2C(=O)c3ccc(C(=O)O)cc3C2=O)c1 [compound 134] | 6 | 0 | –
O=C(O)c1cccc(-n2nc(O)ccc2=O)c1 [compound 166] | 4 | 19 | –
O=C(O)/C=C/c1ccncc1 [compound 148] | 5 | 4 | –
Cc1ccc(C(=O)N/N=C/c2ccc(O)c(I)c2)cn1 [compound 147] | 5 | 12 | –
CC(=O)c1ccc(NC(=O)CC(NCc2cccnc2)C(=O)O)cc1 (centres unmarked) [compound 127] | 7 | 59 | –
CC(=O)c1cccc(NS(=O)(=O)c2cccc(C(=O)O)c2)c1 [compound 240] | 0 | 0 | –
Cc1ccc(C2C(C#N)=C(N)Oc3ncnc(O)c32)cc1 (centres unmarked) [compound 259] | 0 | 0 | –
Nc1nonc1C(=O)N/N=C/c1cc(Br)cc(Br)c1O [compound 040] | 19 | 20 | –
Nc1c(C(=O)Nc2cc(Cl)cc(Cl)c2)sc2nc(-c3ccncc3)ccc12 [03_28] | – | – | inhibition at 100 µM (ecNadD): 0%; inhibition at 50 µM (baNadD): 0%
CCSc1ccccc1C(=O)Nc1ccc(S(N)(=O)=O)cc1 [compound 121] | 8 | 0 | –
O=C(CCC(=O)Nc1ccc(I)cc1)N/N=C/c1cccc(Br)c1 [01_06] | – | – | inhibition at 100 µM (ecNadD): 78%; inhibition at 50 µM (baNadD): 54%
Br.Cn1ccnc1SCC(=O)c1ccccc1 [compound 113] | 8 | 12 | –
COc1cccc(C=C2C(=O)NC(=O)NC2=O)c1OCC(=O)O [compound 098] | 10 | 13 | –
Nc1nnnn1/N=C/c1ccccc1 [compound 278] | 0 | 0 | –
Cc1cccc(N/C=C2\C(=O)Nc3ccccc32)c1 [15_28] | – | – | IC50 (ecNadD): > 200 µM; inhibition at 100 µM (ecNadD): 8%; IC50 (baNadD; IC50 baNadD): > 200 µM; inhibition at 50 µM (baNadD): 24%
O=C(/C=C/c1ccoc1)c1ccccc1O [compound 151] | 5 | 0 | –
O=C(CCC(=O)Nc1cccc(Br)c1)N/N=C/c1cccc(Br)c1 [01_10] | – | – | inhibition at 100 µM (ecNadD): 72%; inhibition at 50 µM (baNadD): 53%
CC(=O)O/C(=C\c1cn(C(C)=O)c2ccccc12)C(=O)O [compound 291] | 0 | 0 | –
O=C(O)c1ccccc1NC1=NS(=O)(=O)c2ccccc21 [compound 132] | 6 | 25 | –
